From PubChem BioAssay (NCI)
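Assay format: 96-well plates, 48-hour exposure. GI50 = concentration required for 50% inhibition of growth. The concentration for full growth arrest is given as TGI.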

Assays:
Assay in all cases: NCI tumour cell line growth inhibition, 48 h
BT-549 breast = test system: BT-549 breast
HOP-18 NSCLC = test system: HOP-18 NSCLC
P388/ADR leukemia = test system: P388/ADR leukemia

Molecule `c1ccc(N2N=C(c3cccc(Nc4ccncc4)c3)CC2c2ccc3c(c2)OCO3)cc1` (stereo not drawn) has a GI50 (BT-549 breast) of 1.83 µM and a TGI (BT-549 breast) of 4.06 µM.
Molecule `C=C(C)C(=O)O[C@H]1CC2=C[C@@H](C[C@@]3(C)O[C@@H]3[C@H]3OC(=O)C(=C)[C@@H]31)OC2=O` has a GI50 (HOP-18 NSCLC) of 6.42 µM, a TGI (HOP-18 NSCLC) of 10.9 µM and a TGI (P388/ADR leukemia) of 11.1 µM.
Molecule `COc1ccc2c(c1O)-c1cc(O)cc3c1[C@@H](C2)N(C)CC3` has a TGI (P388/ADR leukemia) of 180 µM.
Work on `COc1cc(C2S/C(=C/c3ccccc3)C(=O)N2c2ccc(NC(C)=O)cc2)cc(OC)c1OC` (stereo not drawn) yielded a TGI (BT-549 breast) of 65.4 µM.
`NC(=S)N/N=C/c1nccc2ccccc12` gave a TGI (HOP-18 NSCLC) greater than 100 µM.
